These results are taken from article PMC5513211, “PA-6 inhibits inward rectifier currents carried by V93I and D172N gain-of-function KIR2.1 channels, but increases channel protein expression” (Journal of Biomedical Science, 2017).

The structures appear in SMILES notation. Where a chain is given by its changes, count along the chain named. Where two headings read alike, the source gives them in different places.

In test [1] the target is T1, WT KIR2.1 (Homo sapiens, UniProt P63252).
T1 construct: expressed in transfected cells; host or cells: HEK293T
T1 sequence (P63252 1-427): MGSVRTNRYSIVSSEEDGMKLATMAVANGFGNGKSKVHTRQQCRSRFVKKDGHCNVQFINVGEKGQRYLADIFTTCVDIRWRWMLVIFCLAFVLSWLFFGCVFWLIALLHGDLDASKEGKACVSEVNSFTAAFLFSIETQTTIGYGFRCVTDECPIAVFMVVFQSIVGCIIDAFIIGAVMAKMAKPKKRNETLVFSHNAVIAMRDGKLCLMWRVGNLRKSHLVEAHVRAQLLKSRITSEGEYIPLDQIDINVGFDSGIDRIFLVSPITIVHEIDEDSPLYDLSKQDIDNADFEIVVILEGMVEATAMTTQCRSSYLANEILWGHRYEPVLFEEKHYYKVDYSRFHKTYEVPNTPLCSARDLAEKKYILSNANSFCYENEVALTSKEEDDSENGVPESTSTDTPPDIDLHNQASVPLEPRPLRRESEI
In words: Inside-out patch clamp, ramp protocol, WT KIR2.1 currents. The class given is cell-based. The settings on record: inside-out mode, HEK293T, 21 °C. The source says:
(§1) Mutations V93I and D172N were engineered into a human KCNJ2-pcDNA3 expression construct, using the QuikChange II XL Site-Directed Mutagenesis Kit (Stratagene, La Jolla, CA) and custom designed primers. The presence of the introduced mutations was confirmed by Sanger sequencing.
(§2) HEK293T cells were transfected with WT, V93I or D172N constructs together with a GFP expression construct to enable detection of transfected cells. Inside-out patch clamp measurements were made using a HEKA EPC-10 Double Plus amplifier controlled by PatchMaster 2.10 software (HEKA, Lambrecht/Pfalz, Germany) at 21 °C. To record WT, V93I and D172N KIR2.1 currents, inside-out patch-clamp measurements were performed using a ramp protocol ranging from −100 to +100 mV in 5 s from a holding potential of −40 mV. Excised patches were placed in close proximity to the inflow region of the perfusion chamber. Bath solution contained 125 mM KCl, 4 mM EDTA (2K), 7.2 mM K2HPO4, 2.8 mM KH2PO4, pH 7.20/KOH. Pipette solution contained 145 mM KCl, 1 mM CaCl2, 5 mM HEPES, pH 7.40/KOH. Measurements were started following washout of polyamines/Mg^2+ from the channel pore observed by the disappearance of current rectification. For IC50 curves, fractional block at −80 and +50 mV was determined by dividing current levels obtained with PA-6 containing solutions by current levels of control traces recorded in the absence of PA-6.
A general note: In patch-clamp work, channel activity is measured electrically.

Test [2] has as its target T2, V93I KIR2.1 (Homo sapiens, UniProt P63252, V93I).
T2 construct: expressed in transfected cells; host or cells: HEK293T
T2 sequence (P63252 1-427 V93I): T1 sequence (P63252 1-427) with V93I
Nature of the test: Inside-out patch clamp, ramp protocol, V93I KIR2.1 currents. The class given is cell-based. The following applies: inside-out mode, HEK293T, 21 °C.
Excerpt: as §1, §2

Test [3] addresses T3, D172N KIR2.1 (Homo sapiens, UniProt P63252, D172N).
T3 construct: expressed in transfected cells; host or cells: HEK293T
T3 sequence (P63252 1-427 D172N): T1 sequence (P63252 1-427) with D172N
In words: Whole cell patch clamp, D172N KIR2.1 currents. In kind it is cell-based. The settings on record: whole cell mode. As for the experimental part:
as §1
Whole cell patch clamp measurements were done as described before using an AxoPatch 200B amplifier controlled by pClamp9 software (Molecular devices, Sunnyvale, CA, USA) at 21 °C. Whole cell IKIR2.1 measurements were performed by applying 1 s test pulses ranging between −120 and +30 mV, in 10 mV increments, from a holding potential of −40 mV, and with series resistance compensation of at least 70%. Steady state current at the end of the pulse was normalized to cell capacitance and plotted versus test potential (corrected for liquid junction potential). Extracellular solution contained 140 mM NaCl, 5 mM KCl, 1 mM CaCl2, 1 mM MgCl2, 6 mM glucose, 17.5 mM NaHCO3, 15 mM HEPES, pH 7.4/NaOH. Pipette solution contained 125 mM potassium gluconate, 10 mM KCl, 5 mM HEPES, 5 mM EGTA, 2 mM MgCl2, 0.6 mM CaCl2, 4 mM Na2ATP, pH 7.20/KOH.

The subject of test [4] is IK1 / KIR2.1 ion channel. The arrangement: method as in PMID 23625347. The following applies: inside-out patch clamp methodology; read-out: IC50, IK1 inhibition; cited from earlier work.
Setting [5] is: at +50 mV, read-out: IC50, outward current.
The mark [6] stands for this setting: at −80 mV, read-out: IC50, inward current.
The mark [7] stands for this setting: at −50 mV, read-out: Inhibition of outward IK1.
[8] abbreviates: at −110 mV, read-out: Inhibition of inward IK1.

Usually IC50 stands for the concentration needed to halve the response being measured. The inhibition is the relative decrease from the control value, in per cent.

With `N=C(Nc1ccc(OCCCCCOc2ccc(NC(=N)c3ccccc3)cc2)cc1)c1ccccc1` [PA-6], the IC50 was 35.5 nM in test [1] (setting [5]); 52.9 nM in test [1] (setting [6]); 43.6 nM in test [2] (setting [5]); 58 nM in test [2] (setting [6]); 1000 to 3000 nM in test [3]; 14 nM in test [4]. In addition, the figures for the inhibition at 1 µM in test [3] (setting [7]) and in test [3] (setting [8]) were 10 ± 6% and 30 ± 10%, respectively. Further, the inhibition at 3 µM in test [3] (setting [7]) stood at 86 ± 7%; in test [3] (setting [8]) it was 83 ± 1%.
